Measurements reported in paper PMC9320607, “Synthesis, Biological Evaluation and Docking Studies of Ring-Opened Analogues of Ipomoeassin F” (Molecules, 2022).

Tests used:
[1] = target: T1, Sec61-mediated protein translocation (membrane integration of Ii) (Canis lupus familiaris, UniProt P38377); test: In vitro membrane insertion assay of Ii with ER microsomes; format: biochemical, canine
T1 construct: cell-free translation system supplemented with ER microsomes derived from canine pancreas; from tissue; host or cells: canine pancreas ER microsomes (nuclease-treated); the Ii substrate was translated in vitro from T7-transcribed RNA
T1 sequence (P60058 whole entry): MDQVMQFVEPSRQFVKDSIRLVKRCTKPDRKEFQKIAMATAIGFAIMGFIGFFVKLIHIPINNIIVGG
T1 sequence (P38377 2-476): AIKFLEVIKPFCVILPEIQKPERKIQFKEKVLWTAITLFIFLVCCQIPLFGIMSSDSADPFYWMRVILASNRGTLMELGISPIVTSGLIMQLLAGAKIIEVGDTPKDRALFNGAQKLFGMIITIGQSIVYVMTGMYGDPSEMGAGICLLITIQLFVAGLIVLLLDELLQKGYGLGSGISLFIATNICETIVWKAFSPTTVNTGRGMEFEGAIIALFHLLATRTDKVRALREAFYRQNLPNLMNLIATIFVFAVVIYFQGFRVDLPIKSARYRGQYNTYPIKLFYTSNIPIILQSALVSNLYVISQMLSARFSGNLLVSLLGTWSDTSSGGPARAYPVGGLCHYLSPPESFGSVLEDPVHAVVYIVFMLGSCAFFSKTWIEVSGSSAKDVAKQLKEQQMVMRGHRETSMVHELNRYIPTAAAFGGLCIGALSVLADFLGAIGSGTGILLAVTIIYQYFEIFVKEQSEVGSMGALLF
T1 sequence (P60467 2-96, further chain): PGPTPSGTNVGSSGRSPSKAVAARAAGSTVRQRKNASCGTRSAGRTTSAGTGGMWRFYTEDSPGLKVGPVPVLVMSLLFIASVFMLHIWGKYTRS
Source text: Having previously established that the principal molecular basis for the cytotoxicity of Ipom-F is its strong, yet reversible, binding to Sec61α and the resultant wide-ranging blockade of Sec61-mediated protein translocation at the ER [13], we sought evidence that this mechanism also underlies the cytotoxic effects of 1 and other open-chain analogues. […] For comparative purposes, we analyzed the effects of 2 [13] and two closed-chain compounds: Ipom-F and the diester-modified analogue 22 [11] in parallel (Figure 3A).
Following the resolution of radiolabeled proteins by SDS-PAGE (Figure 3B), we used the efficiency with which the N-terminal domain of the type II integral membrane protein Ii (short form of HLA class II histocompatibility antigen gamma chain, isoform 1) was N-glycosylated inside the ER lumen as a robust reporter for the authentic membrane integration of this model Sec61-dependent protein client (Figure 3B, right upper panel, 0Gly versus 2 Gly forms).
(§1) Linear DNA of the short form of human HLA class II histocompatibility antigen gamma chain (Ii; P04232, […], residues 17–232) or human glycophorin C (GypC; P04921) were generated by PCR and transcribed into RNA using T7 RNA polymerase (Promega). Membrane insertion assays (20 µL, 1 h at 30 °C, containing 6.5% (v/v) nuclease-treated ER microsomes (from stock with OD280 = 44/mL)), endoglycosidase Hf (New England Biolabs) treatment, sample resolution by SDS-PAGE (16% polyacrylamide gels) and gel drying were performed as previously described. Following exposure to a phosphorimaging plate for 24–72 h, radiolabeled products were visualized using a Typhoon FLA-7000 (GE Healthcare, Tokyo, Japan) and the ratio of the signal intensity for the N-glycosylated (XGly) and non-glycosylated (0Gly) forms obtained using AIDA v.5.0 (Raytest Isotopenmeβgeräte). This value was then expressed relative to the matched DMSO control (set to 100%) in order to estimate the mean relative insertion (± SEM) from insertion experiments performed in triplicate (n = 3, biologically independent experiments). IC50 value estimates were determined in Prism 8 (GraphPad, San Diego, CA, USA) using nonlinear regression to fit data to a curve of variable slope (four parameters) using the least-squares fitting method, with the top and bottom plateaus of the curve defined as 100% and 7.67% (the mean of all data at 500 µM across all compounds), respectively.

[2] = test system: membrane integration of GypC; test: In vitro membrane insertion assay of GypC with ER microsomes (selectivity control); format: biochemical, canine; conditions: 1 µM compound
Experimental: Following the successful synthesis of analogue 3, we first analyzed its effects on the in vitro membrane integration of our two model protein substrates, Ii and GypC (Figure 6A–C).
as §1, with “IC50 value estimates were determined in Prism 8 (GraphPad, San Diego, CA, USA) using nonlinear regression to fit data to a curve of variable slope (four parameters) using the least-squares fitting method, with the top and bottom plateaus of the curve defined as 100% and 7.67% (the mean of all data at 500 µM across all compounds), respectively.” left out

HCT116 Sec61α-WT cells = test: Resazurin-based cell viability assay in HCT116 Sec61α-WT cells; parameters: species or system human; conditions: HCT116 Sec61α-WT cells, 72 h
Experimental: Parental (Sec61α-WT) […] All cell lines were maintained in a 5% CO2 humidified incubator at 37 °C. Cytotoxicity assays were performed in triplicate sets as previously described and viable cells were counted using an automated cell counter (Bio-Rad TC20) immediately before each experiment. Compound stock solutions in DMSO (10 mM) were diluted with supplemented culture media (MDA-MB-231 cells: high glucose DMEM; HCT116 Sec61α-WT and Sec61α-G80W cells: McCoy’s (modified) 5A) to make a series of gradient fresh working solutions at equal DMSO percentage immediately prior to each test. […] For MDA-MB-231 cells, the media were discarded and […] fresh medium containing 10% (v/v) alamarBlue HS cell viability reagent (resazurin stock solution) (ThermoFisher, Waltham, MA, USA, A50100) was added to each well. For Sec61α-WT or Sec61α-G80W HCT-116 cells, the media was not discarded and alamarBlue HS cell viability reagent (resazurin stock solution) (ThermoFisher, Waltham, MA, USA, A50100) was added to 10% (v/v). After that, all cells were incubated at 37 °C for a further 1–3 h and the emission of each well at 620 nm was detected using a Synergy H1 Hybrid multi-mode plate reader (BioTek, Agilent Technologies, Palo Alto, CA, USA) at excitation 580 nm. […] IC50 value estimates were determined using nonlinear regression to fit data to a curve of variable slope (four parameters) using the least-squares fitting method.

HCT116 Sec61α-G80W cells = test: Resazurin-based cell viability assay in HCT116 Sec61α-G80W cells; parameters: species or system human; conditions: 50 nM, 72 h
Source text: To confirm that Sec61α is the primary target of open-chain analogues and that this interaction underlies their cytotoxic effects, we next used a resazurin-based cell viability assay (Figure 3F) to compare the effects of each compound on the growth of HCT-116 cells that were wild-type for Sec61α (HCT116 Sec61α-WT) or carrying a heterozygous point mutant in SEC61A1 (HCT116 Sec61α-G80W) that confers resistance to Ipom-F, and reduces binding of mycolactone to the Sec61 translocon by mechanism that involves an alteration in translocon dynamics.
The human breast cancer cell line (MDA-MB-231) was maintained in a DMEM high glucose culture medium supplemented with 10% (v/v) fetal bovine serum (FBS) and 2 mM L-glutamine. […] Cytotoxicity assays were performed in triplicate sets as previously described and viable cells were counted using an automated cell counter (Bio-Rad TC20) immediately before each experiment. […] After that, all cells were incubated at 37 °C for a further 1–3 h and the emission of each well at 620 nm was detected using a Synergy H1 Hybrid multi-mode plate reader (BioTek, Agilent Technologies, Palo Alto, CA, USA) at excitation 580 nm. […] IC50 value estimates were determined using nonlinear regression to fit data to a curve of variable slope (four parameters) using the least-squares fitting method. […]

For `CC=C(C)C(=O)OC1C(O)C(OC2C(OC(CCCCC)CCCCC)OC(C)C(OC(C)=O)C2O)OC(COC(=O)CCC(=O)OCCCC)C1OC(=O)C=Cc1ccccc1` (stereo not drawn) [analogue 3], the “reduction in Ii membrane integration” value ([1]; 1 µM compound) was 73–86%, the IC50 ([1]; estimated from titration 500 µM–5 nM, read-out: IC50 (in vitro membrane integration of Ii)) was 242 nM and the “effect on membrane integration of GypC” value [2] was “did not affect”. The cell death (HCT116 Sec61α-WT cells; 50 nM) was ~ 58%, the IC50 (HCT116 Sec61α-WT cells; Homo sapiens, HCT-116, titration 25 µM–1 nM, read-out: IC50 (cytotoxicity)) was 40 nM and the “effect on cell viability” value (HCT116 Sec61α-G80W cells) was “cell death was not observed”.
